# Assays:
# Assay type in all cases: in vivo
# Glycine max (GLXMA) [1] = test: F. Post-emergence effect on useful plants, GLXMA; details: useful plant, application rate 80 g/ha
# Method: (§1) Seeds of monocotyledonous and dicotyledonous weeds and crop plants were placed in sandy loam in plastic or organic planting pots, covered with soil and cultivated in a greenhouse under controlled growth conditions. 2 to 3 weeks after sowing, the test plants were treated at the one-leaf stage. The compounds of the invention, formulated in the form of wettable powders (WP) or as emulsion concentrates (EC), were then sprayed onto the green parts of the plants as aqueous suspension or emulsion with addition of 0.5% additive at a water application rate of 600 l/ha (converted). After the test plants had been kept in the greenhouse under optimum growth conditions for about 3 weeks, the activity of the preparations was rated visually in comparison to untreated controls.
# (§2) For example, • 100% efficacy=plants have died, • 0% action=like untreated control plants.
# (§3) Tables F1a to F4 below show the effects of selected compounds of the general formula (I) according to table 1 on various useful plants at an application rate corresponding to 320 g/ha or less, which were obtained by the experimental procedure mentioned above.
# Oryza sativa (ORYSA) [2] = test: D. Pre-emergence effect on useful plants, ORYSA; details: useful plant
# Text: (§4) Seeds of monocotyledonous and dicotyledonous weed plants and crop plants were placed in plastic or organic planting pots and covered with soil. The compounds of the invention, formulated in the form of wettable powders (WP) or as emulsion concentrates (EC), were then applied to the surface of the covering soil as aqueous suspension or emulsion with addition of 0.5% additive at a water application rate equivalent to 600 l/ha (converted). After the treatment, the pots were placed in a greenhouse and kept under good growth conditions for the test plants. After about 3 weeks, the efficacy of the preparations was scored visually in comparison with untreated controls as percentages. For example, • 100% efficacy=plants have died, • 0% efficacy=like untreated control plants.
# (§5) Tables D1a to D5b below show the effects of selected compounds of the general formula (I) according to table 1 on various useful plants at an application rate corresponding to 320 g/ha or less, which were obtained by the experimental procedure mentioned above.
# Glycine max (GLXMA) [3] = test: D. Pre-emergence effect on useful plants, GLXMA; details: useful plant
# In short: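 Seeds sown in pots and covered with soil; WP or EC formulations sprayed on the soil surface as aqueous suspension/emulsion with 0.5% additive at 600 l/ha water. Plants grown in greenhouse; crop damage scored visually after about 3 weeks as % versus untreated controls (100% = dead, 0% = like control).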
# Oryza sativa (ORYSA) [4] = test: F. Post-emergence effect on useful plants, ORYSA; details: useful plant
# Method: as §1, §2, §3
# Brassica napus (BRSNW) = test: D. Pre-emergence effect on useful plants, BRSNW; details: useful plant
# Text: as §4, §5
SMILES,Post-emergence efficacy against GLXMA in % (Glycine max (GLXMA) [1]),Pre-emergence efficacy against ORYSA in % (Oryza sativa (ORYSA) [2]; application rate 80 g/ha),Pre-emergence efficacy against GLXMA in % (Glycine max (GLXMA) [3]; application rate 80 g/ha),Pre-emergence efficacy against GLXMA in % (Glycine max (GLXMA) [3]; application rate 320 g/ha),Post-emergence efficacy against ORYSA in % (Oryza sativa (ORYSA) [4]; application rate 80 g/ha),Pre-emergence efficacy against ORYSA in % (Oryza sativa (ORYSA) [2]; application rate 320 g/ha),Post-emergence efficacy against ORYSA in % (Oryza sativa (ORYSA) [4]; application rate 320 g/ha),Pre-emergence efficacy against BRSNW in % (Brassica napus (BRSNW); application rate 80 g/ha),Pre-emergence efficacy against BRSNW in % (Brassica napus (BRSNW); application rate 320 g/ha)
O=S(=O)(CCCCl)Oc1cccc(F)c1Oc1ncc(Cl)cn1 [Example I-13],10%,10%,10%,20%,10%,,,,
CCCCCS(=O)(=O)Oc1ccccc1Oc1ncc(Cl)cn1 [Example I-24],,0%,,,0%,20%,0%,0%,0%

# Source: patent US20240174618A1, “SUBSTITUTED (2-HETEROARYLOXYPHENYL)SULFONATES, SALTS THEREOF AND THEIR USE AS HERBICIDAL AGENTS” (Bayer Aktiengesellschaft, priority 2021, published 2024)
